What all share (assay type): in vivo, male Sprague-Dawley (SD) rats
The nature of series [1]: Rat PK: plasma xanomeline after single subcutaneous (SC) dosing of xanomeline or xanomeline prodrugs at 1 mg/kg (Example A-1). The following applies: xanomeline analyte in plasma; for AUC(0-inf): read-out: AUCINF_obs; for half-life: read-out: T½ (converted). As to the method: A pharmacokinetic (PK) study was performed in three male Sprague-Dawley (SD) rats following subcutaneous (SC) administration of xanomeline or test compounds (prodrugs of xanomeline) at 1 mg/kg. Parent compound (xanomeline) was measured in plasma.
Samples were sent for method optimization and measurement of parent compound (xanomeline) via unique calibration lines and following acceptance QC's. Dose formulation concentrations were also measured, and PK parameters were determined (Cmax (ng/mL), Tmax (hr), Cl (ml/min/kg), Vdss (L/kg), t½(hr), AUC0-t (ng/mL*hr), AUC0-inf (ng/mL*hr), MRT (hr), Bioavailability (% F) where warranted) using WinNon Lin software. Data (including bioanalytical results and assay performance) were reported in a tabulated format
• Step 1: A stock solution of the compound(s) were prepared to 1 mg/ml in DMSO • Step 2: A 10,000 ng/mL matched matrix standard was prepared using the stock solution(s) • Step 3: Calibration standards in matched matrix were prepared between 10,000 ng/ml and 0.5 ng/mL using serial dilution • Step 4: QC samples were prepared in matched matrix at 4000, 800, 400, 40 and 10 ng/mL Calibration Standards:
• Step 1: A stock of the IS was diluted to 1 mg/ml in DMSO • Step 2: An ISY is made by diluting the stock to 10 μg/ml in DMSO • Step 3: An ISZ is made by diluting the ISY to 25 ng/ml in 0.1% formic acid in acetonitrile
(§1) • Step 1: Add 10 μL of the standards, QCs and samples to a 96-well plate (extraction plate) • Step 2: To each standard, QC and test sample, add 100 μL of ISZ • Step 3: Sonicate for 2 min then mix the plate for approximately 2 min at 1200 rpm on a plate shaker • Step 4: Centrifuge the plate at 3000 rpm for 5 mins • Step 5: Add 50 μL 0.1% Formic acid in UP H2O to wells of a new 96-well plate • Step 6: Transfer 50 μL extracted sample to relevant position in second 96-well plate • Step 7: Mix at 1200 rpm for 2 minutes • Step 8: Heat seal and analyse on the LC-MS/MS system • Instrument: Xevo TQ-D with CTC Autosampler
• Step 1: A stock solution of the compound(s) were prepared to 1 mg/ml in DMSO • Step 2: A 10,000 ng/mL matched matrix standard was prepared using the stock solution(s) • Step 3: A 2,000 ng/ml matched matrix stock dilution was made from the 10,000 ng/ml stock dilution • Step 4: Standards were prepared at a concentration of 200 ng/ml to 0.01 ng/ml in matched matrix via serial dilution from the second Stock dilution • Step 5: QC samples were prepared in matched matrix at 150, 40, 20, 4 and 0.4 ng/mL Calibration Standards:
as §1, with “min” for “mins”, “formic” for “Formic”, “min” for “minutes”, “TQ-Absolute UHPLC-MS/MS” for “TQ-D with CTC Autosampler”
Formulation for SC administration: For SC dosing, xanomeline and xanomeline prodrugs were formulated as solution in 10% DMSO/90% HPCD (20% in water) to a concentration of 0.5 mg free metabolite material/mL. This provided a dose of 1 mg free metabolite/kg when administered SC in 2 mL/kg dosing volumes.
(§2) The pharmacokinetic properties of the synthesized xanomeline prodrugs after subcutaneous administration in a rat model were assessed. The concentration of xanomeline was measured in each rat at various sampling timepoints after subcutaneous administration of xanomeline or the synthesized xanomeline prodrugs to rats.
Dose formulations were made at equivalent concentrations of active compound (xanomeline) adjusted for molecular weight of the compounds. The synthesized xanomeline prodrugs were dosed at 1 mg/kg subcutaneous (SC) nominal dose. […]

Series [2] is described as follows: Rat PK: plasma xanomeline after subcutaneous (SC) dosing of xanomeline, prodrugs or pamoate salts at 5 mg/kg or 3.5 mg/kg (Example A-2). The following applies: parent xanomeline dosed SC; for Tmax / Cmax / AUC(0-inf) / AUC(0-t) / half-life: male, Sprague-Dawley; for AUC(0-inf): read-out: Xanomeline (SC) AUC0-inf; for AUC(0-t): read-out: Xanomeline (SC) AUC0-last; for half-life: read-out: Xanomeline (SC) T1/2 (converted). As to the method: Samples were sent for method optimization and measurement of parent compound (xanomeline) via unique calibration lines and following acceptance QC's. Dose formulation concentrations were also measured, and PK parameters were determined (Cmax (ng/mL), Tmax (hr), Cl (ml/min/kg), Vdss (L/kg), t½ (hr), AUC0-t (ng/mL*hr), AUC0-inf (ng/mL*hr), MRT (hr), Bioavailability (% F) where warranted) using WinNon Lin software. Data (including bioanalytical results and assay performance) were reported in a tabulated format.
Formulation for SC administration: For SC dosing, xanomeline and xanomeline prodrugs were formulated as solution in 10% DMSO/90% HPCD (20% in water) to a concentration of 2.5 mg free metabolite material/mL or 1.75 mg free metabolite material/mL. This provided a dose of 5 mg free metabolite/kg or 3.5 mg free metabolite/kg, respectively, when administered SC in 2 mL/kg dosing volumes.
as §2
Dose formulations were made at equivalent concentrations of active compound (xanomeline) adjusted for molecular weight of the compounds. The synthesized xanomeline prodrugs were dosed at 5 mg/kg subcutaneous (SC) nominal dose except for xanomeline oxyisobutyl pivalate chloride prodrug and xanomeline oxypropyl pivalate chloride prodrug, which were dosed at 3.5 mg/kg subcutaneous. Nominal doses were used in PK parameter determinations. The parent compound (xanomeline) was dosed at 5 mg/kg subcutaneous (SC).

Series [3] in a line: Rat PK: plasma xanomeline after oral (PO) dosing of xanomeline or xanomeline prodrugs at 10 mg/kg (Example A-7). The following applies: analyte xanomeline in plasma, 10 mg/kg of xanomeline. The procedure:
Samples were sent for method optimization and measurement of parent compound (xanomeline) via unique calibration lines and following acceptance QC's. Dose formulation concentrations were also measured, and PK parameters were determined (Cmax (ng/mL), Tmax (hr), Cl (ml/min/kg), Vdss (L/kg), t½ (hr), AUC0-t (ng/mL*hr), AUC0-inf (ng/mL*hr), MRT (hr), Bioavailability (% F) where warranted) using WinNon Lin software. Data (including bioanalytical results and assay performance) were reported in a tabulated format and QC'd.
Compound was dissolved in DMSO:HPCD (20% w/v in water) [10:90] 2 mg API/mL to provide doses of 10 mg API/kg when administered PO in 5 mL/kg dosing volumes.
The pharmacokinetic properties of the synthesized xanomeline prodrugs after oral administration in a rat model were assessed. The concentration of xanomeline was measured in each rat at various sampling timepoints after oral administration of xanomeline or the synthesized xanomeline prodrugs to rats.
Dose formulations were made at equivalent concentrations of active compound (xanomeline) adjusted for molecular weight of the compounds. The synthesized xanomeline prodrugs were dosed at 10 mg/kg oral (PO) nominal dose. Nominal doses were used in PK parameter determinations. The parent compound (xanomeline) was dosed at 10 mg/kg oral (PO).

Where [4] appears, read: male, Sprague-Dawley, plasma, sc, Mean of animals (Table 3).
Setting [5] is: male, Sprague-Dawley, plasma, sc, individual animal (Table 3).

The source of these data is US20240368149A1, “ANALOGS OF XANOMELINE” (Terran Biosciences Inc., priority 2023, published 2024).

Several values for one entry are separate records, joined by “and”; a condition that tells them apart may be missing. Equal entries are not always repeated.

For `CCCCCCOc1nsnc1C1=CCCN(C)C1` [Xanomeline, 3-hexyloxy-4-(1-methyl-3,6-dihydro-2H-pyridin-5-yl)-1,2,5-thiadiazole], the time to peak (Tmax) in series [1] (male, Sprague-Dawley, in vivo, individual animal (Table 3)) was determined as 0.25 h. In series [1] (setting [4]), the AUC(0-t) came out at 0.0383 µg·h/mL, the AUC(0-inf) is 0.042 µg·h/mL and the half-life was 1.85 h. The Cmax in series [1] (male, Sprague-Dawley, plasma, sc, Mean of animals (Table 3), read-out: Cmax) was 0.0144 µg/mL. Besides, in series [1] (setting [5]), the AUC(0-t) was 0.0401 µg·h/mL, the AUC(0-inf) worked out at 0.046 µg·h/mL and the half-life is 2.3 h. Also, in series [1] (male, Sprague-Dawley, plasma, sc, individual animal (Table 3), read-out: Cmax), the highest concentration (Cmax) was found to be 0.0159 µg/mL. In series [1] (male, Sprague-Dawley, Mean of animals (Table 3)), the time of peak concentration (Tmax) is 0.25 h. The Tlast in series [1] (Mean of animals (Table 3)) is 7.00 h. Also, in series [1] (individual animal (Table 3)), the AUCINF_obs was 0.0429 µg·h/mL and 0.037 µg·h/mL; the AUClast was 0.04 µg·h/mL and 0.0349 µg·h/mL; the maximum concentration (Cmax) was 0.0151 µg/mL and 0.0123 µg/mL; the Tlast turned out to be 7.00 h. Moreover, the T½ in series [1] (individual animal (Table 3)) is 1.66 h and 1.58 h. In series [2] (in vivo, individual animals), the Tmax turned out to be 1 h. Moreover, in series [2] (plasma, sc, Mean), the highest concentration (Cmax) worked out at 0.043 µg/mL, the Tmax came to 0.833 h, the AUC(0-inf) worked out at 0.154 µg·h/mL and the AUC(0-t) stood at 0.171 µg·h/mL. The half-life in series [2] (plasma, sc, Mean) was 1.37 h. Further, in series [2] (plasma, sc, individual animals), the Cmax was determined as 0.0546 µg/mL, the Tmax came out at 0.5 h, the AUC(0-inf) was 0.185 µg·h/mL and the AUC(0-t) was 0.18 µg·h/mL. Moreover, in series [2] (plasma, sc, individual animals), the half-life is 1.5 h. Moreover, the “Xanomeline (SC) Tlast” value in series [2] (Mean) was 37.3 h. In addition, in series [2] (individual animals), the “Xanomeline (SC) AUC0-inf” value amounted to 0.123 µg·h/mL; the “Xanomeline (SC) AUC0-last” value was 0.213 µg·h/mL and 0.121 µg·h/mL; the “Xanomeline (SC) Cmax” value is 0.03 µg/mL and 0.0444 µg/mL; the “Xanomeline (SC) T1/2” value was 1.24 h. Besides, in series [2] (individual animals), the “Xanomeline (SC) Tlast” value was 8.00 h (2×) and 96.0 h.

Consider “xanomeline methyl hexylcarbonate chloride prodrug”, for which the “Xanomeline Tlast” value in series [3] (Mean of 3 animals) is 2.67 h; in series [3] (individual animal, 10 mg/kg) it was 1.00 h and 7.00 h.

One may read the Tmax as the time from dosing to the highest level. Broadly, the Cmax is the peak of the concentration-time curve.
